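Exposure lasted 48 hours, with cells grown in 96-well plates and compounds tested at five concentrations. The concentration for full growth arrest is given as TGI.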 Where only a bound is given, the exact number is not on record here.

Common to all, as to assay: growth of human tumour cells (NCI), 48 h
The test system of assay [1] is A549 NSCLC.
Assay [2] concerns ACHN renal.
For assay [3], the system named is IGROV1 ovarian.
Assay [4] relates to MDA-MB-435.
Assay [5] concerns MOLT-4 leukemia.
For assay [6], the system named is NCI-H226 lung.
The test system of assay [7] is NCI-H460 lung.
The test system of assay [8] is OVCAR-8 ovarian.
Assay [9] has as its system SK-OV-3 ovarian.
For assay [10], the system named is M14 melanoma.

Regarding `CCCC[Si](CCCC)(CCCC)O[C@@H](/C=C/C(=O)OCC)[C@H](Cc1ccccc1)O[Si](CCCC)(CCCC)CCCC`, the TGI in [1], in [2], in assay [3], in assay [4], in assay [5] and in [6] was over 100 µM each time. Also, the TGI in assay [7], in assay [8] and in assay [9] was over 100 µM in each case.
Turning to `C/C(=C\[C@H]1C[C@@H]([C@@H]2CC[C@]34C[C@]23C=C[C@@H]2[C@@]3(C)CC=C5C[C@@H](c6ccccc6)OC[C@]5(C)[C@@H]3C[C@@H](O)[C@]24C)C(=O)O1)CO`, the TGI is over 100 µM in assay [1]; 34.8 µM in [2]; 20.5 µM in assay [3]; over 100 µM in assay [10]; over 100 µM in [4]; over 100 µM in assay [5]. The TGI in [6] was over 94.2 µM; in assay [8], over 100 µM; in assay [9], over 61.8 µM.
As to `C/C(=C\c1ccc2c(c1)OCO2)[N+](=O)[O-]`, the TGI in assay [1] was over 100 µM; in assay [3], 5.89 µM; in assay [10], 42.5 µM; in assay [4], 5.34 µM; in assay [5] it was 1.13 µM; in assay [6], 28.6 µM. Also, the results for the TGI in [7] and in assay [8] were over 100 µM and 5.79 µM, respectively.
For the compound `COc1ccc(C2Oc3c(cccc3OC)C=C2[N+](=O)[O-])cc1` (configuration not stated), the TGI in assay [1] turned out to be 26.4 µM; in assay [2] it was 3.38 µM; in assay [3], 9.3 µM; in [10], 2.15 µM; in [4] it was 10.9 µM; in assay [5], 6.86 µM. Further, the TGI was 4.15 µM in assay [7], 11.2 µM in [8] and 15.3 µM in [9].
As to `O=C1c2ccc3ccccc3c2CCC1N1CCCCC1` (configuration not stated), the TGI in assay [1] is 36.3 µM; in assay [2] it was 31.5 µM; in assay [3], 29.5 µM; in assay [4] it was 32.3 µM; in [6] it was 31.4 µM; in assay [7], 50.4 µM. In addition, the TGI in assay [8] was determined as 37.3 µM; in [9] it was 54.4 µM.
Take `CC1(C)CC[C@]2(C(=O)O)CC[C@]3(C)C(=CC[C@@H]4[C@@]5(C)CC[C@@H]6OC(C)(C)OC[C@@]6(C)[C@@H]5CC[C@]43C)[C@H]2C1`: the TGI was 15.7 µM in [2]; 30.2 µM in [3]; 33.7 µM in [10]; 25.6 µM in assay [4]; 34.3 µM in [5]; 20 µM in [7]. In addition, the results for the TGI in assay [8] and in assay [9] were over 100 µM and 91.8 µM, respectively.
On to `CC(C)=CCC/C(C)=C/CC/C(C)=C/CC/C(C=O)=C/CC/C(C)=C\CC/C(C)=C/CC/C(C)=C/CC/C(C)=C/CC1=CC(=O)C=CC1=O`, for which the TGI in [1], in [2], in assay [3], in [10], in assay [4] and in assay [5] was over 100 µM each time. Besides, the TGI in assay [7], in assay [8] and in assay [9] was over 100 µM in each case.
Consider `N.N.N.N.O=S(=O)([O-])[O-].[Co+3].[OH3+].[OH3+]`, for which the TGI in assay [1], in [2], in [3], in assay [10], in [5] and in assay [7] was over 100 µM each time. Further, the TGI in [8] and in [9] was over 100 µM throughout.
Regarding `CC1OC2OC3C(OCC(O)C3O)OC(=O)[C@]34CCC(C)(C)CC3C3=CCC5[C@@]6(C)C[C@H](O)[C@H](OC7OC(CO)C(O)C(O)C7OC7OC(COC(=O)CC(C)(O)CC(=O)OC1C(O)C2O)C(O)C(O)C7O)[C@@](C)(CO)C6CC[C@@]5(C)[C@]3(C)CC4` (some centres not stated), the TGI in assay [1] is 2.63 µM; in [2], 2.52 µM; in assay [3], 2.54 µM; in [10] it was 2.76 µM; in assay [4], 2.88 µM; in assay [6], 5.19 µM. Besides, the TGI came to 4.45 µM in assay [7], 3.1 µM in assay [8] and 2.79 µM in assay [9].
On to `O=C1CCC2(c3ccc(F)cc3)Nc3ncncc3N12` (configuration not stated), for which the TGI in assay [1], in [2], in assay [3], in assay [10], in [4] and in assay [5] was over 10 µM in each case. The TGI in [6], in assay [7] and in [8] was over 10 µM in each case.
For `CO/N=C/c1c(-c2ccc(Cl)cc2)c(/C=N/OC)n2c1sc1ccccc12`, the TGI in [1], in [2], in [3], in assay [4], in assay [5] and in [7] was over 100 µM throughout. Besides, the TGI in assay [8] and in assay [9] was over 100 µM each time.
Regarding `CCC(/C=C/c1ccccc1)=N\N=C(\C=C\c1ccccc1)CC`, the TGI in assay [1], in assay [2], in [3], in [10], in assay [5] and in assay [6] was over 100 µM in each case. Also, the TGI in assay [7], in assay [8] and in [9] was over 100 µM throughout.
As to `CC(=O)OCC(OC(C)=O)C(OC(C)=O)C(OC(C)=O)C(/C=N\Nc1nc2ccccc2c(=O)[nH]1)OC(C)=O` (configuration not stated), the TGI in assay [1], in assay [2], in assay [10], in assay [4], in [5] and in assay [6] was over 100 µM each time. For the same compound, the TGI in [7], in assay [8] and in assay [9] was over 100 µM throughout.
Regarding `CCOC(=O)C1C(=O)CC(C)(O)C(C(=O)OCC)C1c1ccc(OC)cc1` (configuration not stated), the TGI in [1], in assay [2], in assay [3], in assay [10], in [4] and in [5] was over 100 µM in each case. In addition, the TGI in assay [6], in assay [7] and in assay [8] was over 100 µM throughout.
Turning to `Cc1c(C)c2ccc(O)cc2[nH]c1=O`, the TGI in assay [1], in [2], in assay [3], in assay [10], in assay [4] and in assay [5] was over 100 µM in each case. In addition, the TGI in [6], in assay [7] and in assay [8] was over 100 µM each time.
In the case of `Clc1ccc(N=Cc2cc3cc(Br)ccc3nc2Cl)cc1`, the TGI in [3], in [10], in assay [4], in assay [5], in assay [6] and in assay [7] was over 50 µM throughout. In assay [8], this compound returned a TGI of over 50 µM.
Take `C=CCn1c(=S)sc2c(=O)[nH]cnc21`: the TGI in assay [1], in assay [2], in assay [3], in assay [10], in [5] and in assay [7] was over 100 µM in each case. The TGI in assay [8] and in assay [9] was over 100 µM each time.
Consider `O=C(Nc1ccc(F)cc1)c1cc2ccc(O)cc2oc1=Nc1cccc(F)c1`, for which the TGI in assay [2] was over 100 µM; in assay [3], 49.7 µM; in [4], over 100 µM; in assay [5], over 100 µM; in [7], over 100 µM; in [8] it was 41.6 µM. The compound further gave a TGI in assay [9] of over 100 µM.
With `COc1ccc(C2S/C(=C\c3cccc([N+](=O)[O-])c3)C(=O)N2NC(=O)Cc2ccccc2)cc1` (configuration not stated), the TGI in [1], in [2], in assay [3], in [10], in assay [5] and in [6] was over 100 µM in each case. For the same compound, the TGI in assay [7], in [8] and in assay [9] was over 100 µM throughout.
In the case of `COc1ccc(C2C3=C(CCCC3=O)N(c3ccccc3)C3=C2C(=O)CCC3)cc1`, the TGI in assay [1], in assay [2], in assay [3], in [10], in assay [5] and in assay [6] was over 100 µM each time. Also, the TGI in assay [7] and in assay [9] was over 100 µM in each case.
In the case of `O=C1CSc2ccncc2N1`, the TGI in assay [1], in [2], in [3], in [10], in [5] and in [6] was over 100 µM throughout. In addition, the TGI in [7] and in assay [8] was over 100 µM in each case.
For `CCCN1CN(C(C(=O)N[C@@H]2C(=O)N3C(C(=O)O)=C(C)CSC23)c2ccccc2)CSC1=S` (some centres not stated), the TGI in [1], in [2], in assay [3], in [10], in [5] and in assay [7] was over 100 µM each time. For the same compound, the TGI in [8] and in assay [9] was over 100 µM throughout.
For `Cc1ccccc1Nc1cn(CCOc2ccccc2)c(=O)n(CCOc2ccccc2)c1=O`, the TGI in assay [1], in assay [2], in assay [3], in assay [10], in assay [4] and in assay [5] was over 100 µM in each case. The TGI in assay [7] was over 100 µM.
Take `Cc1ccc(OCCn2cc(Nc3ccccc3)c(=O)[nH]c2=O)cc1`: the TGI in [1], in assay [2], in [3], in [10], in assay [4] and in [5] was over 100 µM in each case. Further, the TGI in assay [6], in assay [7] and in [8] was over 100 µM each time.
As for `COc1ccc(-n2nnnc2C2(Nc3ccccc3)CCN(Cc3ccccc3)CC2)cc1`, the TGI in assay [1] was 45.8 µM; in [2], over 100 µM; in assay [3] it was 41.2 µM; in assay [10], 32 µM; in [4] it was 15.4 µM; in [6], over 100 µM. Moreover, the TGI in assay [7] was determined as 42 µM; in assay [8], 54.6 µM; in assay [9], 86.2 µM.
In the case of `C=C1C(=O)O[C@H]2[C@H]3O[C@@H](C[C@@H]12)[C@](C)(O)CCCC(C)=CCC[C@H]3C`, the TGI was 33.6 µM in assay [1]; 21.7 µM in assay [2]; 5.05 µM in assay [3]; 15.8 µM in [4]; 8.09 µM in assay [5]; 36.9 µM in [6]. Also, the TGI was 30.5 µM in assay [7], 21 µM in assay [8] and 35.3 µM in [9].
Turning to `O=C(CN1CCCC1)Nc1ccc2sc3ccccc3c(=O)c2n1`, the TGI in [1] is 38.8 µM; in assay [2], 31.7 µM; in [3], 66.5 µM; in [10] it was 54.4 µM; in [4], 35.3 µM; in assay [5], 15.6 µM. Besides, the TGI was over 100 µM in assay [7], 52.5 µM in [8] and 58.7 µM in assay [9].
`CC(C)(C)OC(=O)N1C(=O)OC[C@@H]2C=C[C@@H]21`: the TGI in assay [1], in [2], in assay [3], in [10], in assay [4] and in [5] was over 100 µM each time. Further, the TGI in assay [7], in [8] and in assay [9] was over 100 µM in each case.
`Cc1cccc(C(O)c2ccccn2)c1O` (configuration not stated): the TGI in assay [1], in assay [2], in [3], in assay [4], in [5] and in assay [6] was over 100 µM in each case. Besides, the TGI in assay [7] and in assay [8] was over 100 µM throughout.
On to `CCOC(=O)c1cc(Cl)ccc1OC(N)=O`, for which the TGI in [1], in [3], in assay [5], in assay [6], in assay [7] and in assay [8] was over 100 µM each time. The compound further gave a TGI in assay [9] of over 100 µM.
